Active and inactive are the calls of the source. The calls are words filed in the database; no cut-off is given here.
These compounds were tested against T1, Tyrosinase (Agaricus bisporus, UniProt O42713) (assay: Inhibition of mushroom tyrosinase diphenolase activity using L-DOPA as substrate preincubated with substrate for 10 mins followed by protein addition measured after 5 mins by spectrophotometric method).
T1 sequence (O42713 whole entry): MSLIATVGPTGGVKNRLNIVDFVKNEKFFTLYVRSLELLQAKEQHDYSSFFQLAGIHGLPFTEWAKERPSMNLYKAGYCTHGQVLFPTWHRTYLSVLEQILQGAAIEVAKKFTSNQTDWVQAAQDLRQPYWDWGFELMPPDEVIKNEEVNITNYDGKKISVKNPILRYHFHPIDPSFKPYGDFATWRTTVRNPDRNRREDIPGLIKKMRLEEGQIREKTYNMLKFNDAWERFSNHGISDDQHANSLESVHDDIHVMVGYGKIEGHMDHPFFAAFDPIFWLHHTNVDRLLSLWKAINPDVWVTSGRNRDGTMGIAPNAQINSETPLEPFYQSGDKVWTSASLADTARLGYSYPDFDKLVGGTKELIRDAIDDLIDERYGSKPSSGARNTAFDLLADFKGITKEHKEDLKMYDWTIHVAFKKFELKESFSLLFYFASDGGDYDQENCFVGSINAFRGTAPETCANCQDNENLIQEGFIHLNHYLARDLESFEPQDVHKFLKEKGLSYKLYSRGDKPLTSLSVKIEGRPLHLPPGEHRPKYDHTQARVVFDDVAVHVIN

**Q.** With O=C(c1ccc(F)cc1)N1CCN(Cc2ccc(F)cc2)CC1 as the compound, how does the IC50 read?
**A.** 7.77 µM

**Q.** CC(C)C(=O)N1CCN(Cc2ccc(F)cc2)CC1 was tested. Which IC50 did it give?
**A.** 30.9 µM

**Q.** How did the IC50 turn out when CCC(=O)N1CCN(Cc2ccc(F)cc2)CC1 was run?
**A.** 51.1 µM

**Q.** With O=C(c1ccc(O)cc1)N1CCN(Cc2ccc(F)cc2)CC1 as the compound, how does the IC50 read?
**A.** 27.4 µM

**Q.** O=C(c1ccccc1F)N1CCN(Cc2ccc(F)cc2)CC1 was tested. Which IC50 did it give?
**A.** 3.75 µM

**Q.** How did the IC50 turn out when Cc1cccc(C(=O)N2CCN(Cc3ccc(F)cc3)CC2)c1 was run?
**A.** 174 µM

**Q.** Which IC50 does the source give for CC(=O)N1CCN(Cc2ccc(F)cc2)CC1 here?
**A.** 45.9 µM

**Q.** How did the IC50 turn out when COc1ccccc1C(=O)N1CCN(Cc2ccc(F)cc2)CC1 was run?
**A.** 2.03 µM

**Q.** Which IC50 does the source give for O=C(c1cccc(O)c1)N1CCN(Cc2ccc(F)cc2)CC1 here?
**A.** 12.6 µM

**Q.** With O=C(c1ccccc1)N1CCN(Cc2ccc(F)cc2)CC1 as the compound, how does the IC50 read?
**A.** 13.3 µM

**Q.** O=C(c1ccccc1O)N1CCN(Cc2ccc(F)cc2)CC1 was tested. Which IC50 did it give?
**A.** 7.06 µM

**Q.** For Fc1ccc(CN2CCNCC2)cc1, which IC50 is on record?
**A.** 85.5 µM

**Q.** Which IC50 does the source give for CC(=O)N1CCC(Cc2ccc(F)cc2)CC1 here?
**A.** 25.1 µM

**Q.** CCC(=O)N1CCC(Cc2ccc(F)cc2)CC1 was tested. Which IC50 did it give?
**A.** 24.1 µM

**Q.** Which IC50 does the source give for O=C(c1cccc(F)c1)N1CCN(Cc2ccc(F)cc2)CC1 here?
**A.** 54.7 µM

**Q.** How did the IC50 turn out when Cc1ccc(C(=O)N2CCN(Cc3ccc(F)cc3)CC2)cc1 was run?
**A.** 33.1 µM

**Q.** With COc1ccc(C(=O)N2CCN(Cc3ccc(F)cc3)CC2)cc1 as the compound, how does the IC50 read?
**A.** 9.14 µM

**Q.** Which IC50 does the source give for COc1cccc(C(=O)N2CCN(Cc3ccc(F)cc3)CC2)c1 here?
**A.** 27 µM

**Q.** With O=C(c1ccccc1)N1CCC(Cc2ccc(F)cc2)CC1 as the compound, how does the IC50 read?
**A.** 19.5 µM

**Q.** Which IC50 does the source give for Cc1ccccc1C(=O)N1CCN(Cc2ccc(F)cc2)CC1 here?
**A.** 5.25 µM

**Q.** For CC(C)C(=O)N1CCC(Cc2ccc(F)cc2)CC1, which IC50 is on record?
**A.** 35.3 µM

The compounds below were run against T2, Tyrosinase (Agaricus bisporus) (UniProt O42713) (assay: Non-competitive inhibition of mushroom tyrosinase diphenolase activity at 2 to 8 uM using L-DOPA as substrate preincubated with substrate for 30 mins followed by protein addition measured after 5 mins by Lineweaver-Burk double-reciprocal plot analysis).
T2 sequence (whole entry): T1 sequence (O42713 whole entry)

**Q.** Which inhibition does the source give for COc1ccccc1C(=O)N1CCN(Cc2ccc(F)cc2)CC1 here?
**A.** Active

From ChEMBL document CHEMBL4177754, “Targeting Tyrosinase: Development and Structural Insights of Novel Inhibitors Bearing Arylpiperidine and Arylpiperazine Fragments” (J Med Chem, 2018)
